Values belong to the compound of their own block, whether it stands above or below them.
Test system: non-pancreatic lipase
Assay: quantitative evaluation of influence of non-pancreatic lipase (measured value versus theoretical or reference value in heparin-administered samples)
Type: biochemical, human
Text: Next, the influence of the non-pancreatic lipase activity was obtained as follows on the assumption that the Liquitech reagent is not influenced by the non-pancreatic lipase. First, with respect to measured values of the enzyme activity obtained in samples other than the heparin-administered samples, a regression equation (an independent variable X: enzyme activity attained by Liquitech, a dependent variable Y: enzyme activity attained by the comparative example or the present example) was obtained. Next, with respect to each heparin-administered sample, the variable Y was calculated as a theoretical value by substituting the measured value of the enzyme activity obtained by the Liquitech for the variable X of the regression equation. Thereafter, with respect to each heparin-administered sample, the actually measured value of the enzyme activity obtained by the comparative example or the present example was divided by the theoretical value of the variable Y to calculate a relative percentage (%). It is noted that the acceptable range of the influence was provisionally set as within ±20% in reference to the package insert of “Liquitech Lipase Color II” describing that the accuracy is within ±15% of known activity.
In the present example, NaGDCA was selected as the conjugated bile acid and was combined with a non-conjugated bile acid, NaDCA, (mixed in equal amounts) to examine the behavior of a heparin-administered sample with the pH of a reaction solution changed to 7.1, 7.4 and 7.6. As the buffer solution, the BES buffer was used. As samples, (four) control samples (controls each containing a pancreatic lipase), (ten) normal samples and (nine) heparin-administered samples were used. As a comparative example, NaDCA (in a concentration of 30 mmol/L in the R-1) and NaTDCA (in a concentration of 10 mmol/L in the R-1) were used as the bile acid, and the reaction solution was adjusted to pH 7.95 (the Bicine buffer). Besides, “Liquitech Lipase Color II” manufactured by Roche Diagnostics was used for verifying the effect of the present example. “Liquitech Lipase Color II” was used in accordance with the package insert, and a special calibrator was used for calculating the enzyme activity. Thereafter, in the same manner as in Example 7, with respect to each heparin-administered sample, the actually measured value of the enzyme activity obtained by the comparative example or the present example was divided by the theoretical value to calculate a relative percentage (%). The influence of the non-pancreatic lipase activity and the acceptable range of the influence were the same as those in Example 7.
As a comparative example, NaDCA and NaTDCA (respectively in concentrations of 30 mmol/L and 10 mmol/L in the R-1) were used as the bile acids, and the reaction solution was adjusted to pH 7.95 by using the Bicine buffer to measure a heparin-administered sample. […] The bile acids were used in a total concentration in the R-1 of 40 mmol/L (each in 20 mmol/L in using two of them, and each in 13.3 mmol/L in using three of them). Besides, “Liquitech Lipase Color II” manufactured by Roche Diagnostics was used for verifying the effect of the present example. “Liquitech Lipase Color II” was used in accordance with the package insert, and a special calibrator was used for calculating the enzyme activity. In each of the comparative example and the present example, the lipase activity was calculated by using a molecular extinction coefficient of 6300 L/mol·cm of the reduced NADP. Thereafter, in the same manner as in Example 7, with respect to each heparin-administered sample, the actually measured value of the enzyme activity obtained by the comparative example or the present example was divided by the theoretical value to calculate a relative percentage (%). The influence of the non-pancreatic lipase activity and the acceptable range of the influence were calculated in the same manner as in Example 7.

Structure (SMILES): C[C@H](CCC(=O)NCC(=O)[O-])[C@H]1CC[C@H]2[C@@H]3[C@H](O)C[C@@H]4C[C@H](O)CC[C@]4(C)[C@H]3CC[C@]12C.[Na+] [NaGCDCA, sodium glycochenodeoxycholate]
Measured value/theoretical value (Table 5) (sample Heparin 31, pH 7.0): 98.4% | Measured value/theoretical value (Table 5) (sample Heparin 31, pH 7.95): 311.8% | Measured value/theoretical value (Table 5) (sample Heparin 32, pH 7.0): 98.5% | Measured value/theoretical value (Table 5) (sample Heparin 32, pH 7.95): 492.8% | Measured value/theoretical value (Table 5) (sample PRECINORM, pH 7.0): 99.3% | Measured value/theoretical value (Table 5) (sample PRECINORM, pH 7.95): 107.6% | Measured value/theoretical value (Table 5) (sample PRECIPATH, pH 7.0): 100.9% | Measured value/theoretical value (Table 5) (sample PRECIPATH, pH 7.95): 111.6% | Measured value/theoretical value (Table 5) (sample Pool 1, pH 7.0): 101.8% | Measured value/theoretical value (Table 5) (sample Pool 1, pH 7.95): 99.4% | Measured value/theoretical value (Table 5) (sample Pool 2, pH 7.0): 89.8% | Measured value/theoretical value (Table 5) (sample Pool 2, pH 7.95): 126.2% | Measured value/theoretical value (Table 5) (sample Seraclear LP, pH 7.0): 87.0% | Measured value/theoretical value (Table 5) (sample Seraclear LP, pH 7.95): 60.4%

actually measured value/theoretical value (Table 4) (Average of Heparin 21-25, pH 6.2): 104.1% | actually measured value/theoretical value (Table 4) (Average of Heparin 21-25, pH 6.4): 102.7% | actually measured value/theoretical value (Table 4) (Average of Heparin 21-25, pH 6.6): 97.8% | actually measured value/theoretical value (Table 4) (Average of Heparin 21-25, pH 6.9): 94.9% | actually measured value/theoretical value (Table 4) (Average of Heparin 21-25, pH 7.2): 100.9% | actually measured value/theoretical value (Table 4) (Average of Heparin 21-25, pH 7.4): 119.2% | actually measured value/theoretical value (Table 4) (Average of Heparin 21-25, pH 7.6): 212.1% | actually measured values relative to theoretical values, average (heparin-administered samples, pH 7.4 or lower): smaller than 120.0% | actually measured value/theoretical value (Table 4) (sample Heparin 21, pH 6.2): 118.4% | actually measured value/theoretical value (Table 4) (sample Heparin 21, pH 6.4): 110.6% | actually measured value/theoretical value (Table 4) (sample Heparin 21, pH 6.6): 109.4% | actually measured value/theoretical value (Table 4) (sample Heparin 21, pH 6.9): 99.9% | actually measured value/theoretical value (Table 4) (sample Heparin 21, pH 7.2): 99.1% | actually measured value/theoretical value (Table 4) (sample Heparin 21, pH 7.4): 118.3% | actually measured value/theoretical value (Table 4) (sample Heparin 21, pH 7.6): 167.2% | actually measured value/theoretical value (Table 4) (sample Heparin 22, pH 6.2): 100.6% | actually measured value/theoretical value (Table 4) (sample Heparin 22, pH 6.4): 100.8% | actually measured value/theoretical value (Table 4) (sample Heparin 22, pH 6.6): 93.6% | actually measured value/theoretical value (Table 4) (sample Heparin 22, pH 6.9): 86.0% | actually measured value/theoretical value (Table 4) (sample Heparin 22, pH 7.2): 98.5% | actually measured value/theoretical value (Table 4) (sample Heparin 22, pH 7.4): 107.8% | actually measured value/theoretical value (Table 4) (sample Heparin 22, pH 7.6): 162.0% | actually measured value/theoretical value (Table 4) (sample Heparin 23, pH 6.2): 112.9% | actually measured value/theoretical value (Table 4) (sample Heparin 23, pH 6.4): 115.8% | actually measured value/theoretical value (Table 4) (sample Heparin 23, pH 6.6): 111.4% | actually measured value/theoretical value (Table 4) (sample Heparin 23, pH 6.9): 114.9% | actually measured value/theoretical value (Table 4) (sample Heparin 23, pH 7.2): 110.5% | actually measured value/theoretical value (Table 4) (sample Heparin 23, pH 7.4): 129.2% | actually measured value/theoretical value (Table 4) (sample Heparin 23, pH 7.6): 281.9% | actually measured value/theoretical value (Table 4) (sample Heparin 24, pH 6.2): 95.4% | actually measured value/theoretical value (Table 4) (sample Heparin 24, pH 6.4): 91.7% | actually measured value/theoretical value (Table 4) (sample Heparin 24, pH 6.6): 83.0% | actually measured value/theoretical value (Table 4) (sample Heparin 24, pH 6.9): 84.4% | actually measured value/theoretical value (Table 4) (sample Heparin 24, pH 7.2): 96.0% | actually measured value/theoretical value (Table 4) (sample Heparin 24, pH 7.4): 113.2% | actually measured value/theoretical value (Table 4) (sample Heparin 24, pH 7.6): 215.2% | actually measured value/theoretical value (Table 4) (sample Heparin 25, pH 6.2): 93.1% | actually measured value/theoretical value (Table 4) (sample Heparin 25, pH 6.4): 94.7% | actually measured value/theoretical value (Table 4) (sample Heparin 25, pH 6.6): 91.7% | actually measured value/theoretical value (Table 4) (sample Heparin 25, pH 6.9): 89.5% | actually measured value/theoretical value (Table 4) (sample Heparin 25, pH 7.2): 100.2% | actually measured value/theoretical value (Table 4) (sample Heparin 25, pH 7.4): 127.4% | actually measured value/theoretical value (Table 4) (sample Heparin 25, pH 7.6): 234.4%
Structure (SMILES): C[C@H](CCC(=O)NCCS(=O)(=O)[O-])[C@H]1CC[C@H]2[C@@H]3CC[C@@H]4C[C@H](O)CC[C@]4(C)[C@H]3C[C@H](O)[C@]12C.[Na+] [NaTDCA, sodium taurodeoxycholate]

Reference: patent US10000791B2, “Measurement method for human pancreatic lipase activity” (ASAHI KASEI PHARMA CORPORATION, priority 2013, dated 2018)
